{"source": "patent US20150105252A1", "about": "“SUBSTITUTED PYRAZOLES AS HERBICIDES” (E I DU PONT DE NEMOURS AND COMPANY, priority 2013, published 2015)", "key": {"morningglory [1]": {"test_system": "morningglory", "experiment": "Test A postemergence", "assay_type": "in vivo, Ipomoea spp.", "how_it_was_run": "(§1)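 After sowing in a sand–loam mix, pots received compound preemergence by directed soil spray, or postemergence once plants reached the one- to two-leaf stage (2–10 cm). Formulation contained surfactant in a non-phytotoxic solvent. Injury was scored visually after ~10 greenhouse days, 0–100 scale.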"}, "velvetleaf [2]": {"test_system": "velvetleaf", "experiment": "Test C preemergence", "assay_type": "in vivo, Abutilon theophrasti", "how_it_was_run": "(§2)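 Seeds sown in loam–sand blend and treated preemergence with test chemicals in non-phytotoxic solvent with surfactant; postemergence plants in peat-based medium, treated at 2–18 cm (1- to 4-leaf stage). Greenhouse 13 to 15 days, then visual rating versus controls, 0 (no effect) to 100 (complete control).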"}, "sedge, umbrella": {"test_system": "sedge, umbrella", "experiment": "Test B flood", "assay_type": "in vivo, Cyperus difformis", "details": "250 g ai/ha, visual rating on 0 to 100 scale (0 no effect, 100 complete control), 13 to 15 days", "how_it_was_run": "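Visual ratings on a 0–100 scale, where 0 means no effect and 100 means complete control, were assigned by comparison with controls 13 to 15 days after treatment. Compounds went into paddy water over 2-leaf plants flooded to 3 cm.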"}, "soybean": {"test_system": "soybean", "experiment": "Test C preemergence", "assay_type": "in vivo, Glycine max", "how_it_was_run": "as §2"}, "wheat": {"test_system": "wheat", "experiment": "Test A postemergence", "assay_type": "in vivo, Triticum aestivum", "how_it_was_run": "as §1"}, "oat, wild": {"test_system": "oat, wild", "experiment": "Test C postemergence", "assay_type": "in vivo, Avena fatua", "description": "(§3) Seeds of plant species selected from blackgrass (Alopecurus myosuroides), ryegrass, Italian (Italian ryegrass, Lolium multiflorum), wheat (winter wheat, Triticum aestivum), galium (catchweed bedstraw, Galium aparine), corn (Zea mays), crabgrass, large (large crabgrass, Digitaria sanguinalis), foxtail, giant (giant foxtail, Setaria faberii), johnsongrass (Sorghum halepense), lambsquarters (Chenopodium album), morningglory (Ipomoea coccinea), nutsedge, yellow (yellow nutsedge, Cyperus esculentus), pigweed (redroot pigweed, Amaranthus retroflexus), ragweed (common ragweed, Ambrosia elation), soybean (Glycine max), barnyardgrass (Echinochloa crus-galli), oilseed rape (Brassica napus), waterhemp (common waterhemp, Amaranthus rudis), oat, wild (wild oat, Avena fatua), kochia (Kochia scoparia), Surinam grass (Brachiaria decumbens), foxtail, green (green foxtail, Setaria viridis), goosegrass (Eleusine indica), bromegrass, downy (downy bromegrass, Bromus tectorum), nightshade (eastern black nightshade, Solanum ptycanthum), cocklebur (common cocklebur, Xanthium strumarium), cupgrass, woolly (woolly cupgrass, Eriochloa villosa), bermudagrass (Cynodon dactylon), sunflower, (common oilseed sunflower, Helianthus annuus), Russian thistle (Salsola kali), and velvetleaf (Abutilon theophrasti) were planted into a blend of loam soil and sand and treated preemergence with test chemicals formulated in a non-phytotoxic solvent mixture which included a surfactant.\n(§4) At the same time, plants selected from these crop and weed species and also chickweed (common chickweed, Stellaria media), canarygrass (littleseed canarygrass, Phalaris minor), and deadnettle (henbit deadnettle, Lamium amplexicaule), were planted in pots containing Redi-Earth® planting medium (Scotts Company, 14111 Scottslawn Road, Marysville, Ohio 43041) comprising spaghnum peat moss, vermiculite, wetting agent and starter nutrients and treated with postemergence applications of test chemicals formulated in the same manner. Plants ranged in height from 2 to 18 cm (1- to 4-leaf stage) for postemergence treatments. Treated plants and controls were maintained in a greenhouse for 13 to 15 days, after which time all species were compared to controls and visually evaluated. Plant response ratings, summarized in Table C, are based on a scale of 0 to 100 where 0 is no effect and 100 is complete control. A dash (-) response means no test result."}, "chickweed": {"test_system": "chickweed", "experiment": "Test C postemergence", "assay_type": "in vivo, Stellaria media", "how_it_was_run": "as §2"}, "velvetleaf [3]": {"test_system": "velvetleaf", "experiment": "Test C postemergence", "assay_type": "in vivo, Abutilon theophrasti", "description": "as §3, §4"}, "johnsongrass": {"test_system": "johnsongrass", "experiment": "Test C postemergence", "assay_type": "in vivo, Sorghum halepense", "details": "for Plant response rating, Johnsongrass: postemergence", "description": "as §3, §4"}, "barnyardgrass": {"test_system": "barnyardgrass", "experiment": "Test C preemergence", "assay_type": "in vivo, Echinochloa crus-galli", "how_it_was_run": "as §2"}, "velvetleaf [4]": {"test_system": "velvetleaf", "experiment": "Test A postemergence", "assay_type": "in vivo, Abutilon theophrasti", "how_it_was_run": "as §1"}, "lambsquarters": {"test_system": "lambsquarters", "experiment": "Test C preemergence", "assay_type": "in vivo, Chenopodium album", "details": "preemergence", "description": "as §3, §4"}, "morningglory [5]": {"test_system": "morningglory", "experiment": "Test C preemergence", "assay_type": "in vivo, Ipomoea coccinea", "details": "preemergence", "how_it_was_run": "as §2"}, "[6]": {"details": "Postemergence, 500 g ai/ha, visual rating after approx. 10 days, 0 to 100 scale (0 no effect, 100 complete control)"}, "[7]": {"details": "postemergence, 125 g ai/ha, about 10 days, visual rating on 0 to 100 scale (0 no effect, 100 complete control)"}, "[8]": {"details": "preemergence, 31 g ai/ha, visual rating, scale 0 to 100 (0 no effect, 100 complete control), 13 to 15 days"}, "[9]": {"details": "preemergence, 62 g ai/ha, scale 0 to 100 (0 no effect, 100 complete control), 13 to 15 days"}, "[10]": {"details": "preemergence, 125 g ai/ha, scale 0 to 100, 0 is no effect, 100 is complete control"}, "[11]": {"details": "Postemergence, 31 g ai/ha, visually evaluated after 13 to 15 days"}, "[12]": {"details": "postemergence, 62 g ai/ha, scale 0 to 100"}, "[13]": {"details": "postemergence, 250 g ai/ha, scale 0 to 100 (0 no effect, 100 complete control)"}, "[14]": {"details": "postemergence, 125 g ai/ha, scale 0 to 100, 0 no effect, 100 complete control"}, "[15]": {"details": "Postemergence, 500 g ai/ha, 0 to 100 scale (0 no effect, 100 complete control)"}, "[16]": {"details": "preemergence, 125 g ai/ha, 13 to 15 days, scale 0 to 100, 0 = no effect, 100 = complete control"}, "[17]": {"details": "preemergence, 250 g ai/ha, scale 0 to 100, 0 is no effect, 100 is complete control"}, "[18]": {"details": "31 g ai/ha, visual rating, scale 0 to 100 (0 no effect, 100 complete control), 13 to 15 days"}, "[19]": {"details": "62 g ai/ha, scale 0 to 100 (0 no effect, 100 complete control), 13 to 15 days"}, "[20]": {"details": "125 g ai/ha, 13 to 15 days, scale 0 to 100, 0 = no effect, 100 = complete control"}, "[21]": {"details": "250 g ai/ha, scale 0 to 100, 0 is no effect, 100 is complete control"}}}
{"smiles": "CCc1cc(-c2ccc(C(F)(F)F)cc2)nn1Cc1ccnc(C(F)(F)F)c1", "note": "[Compound 110]", "values": [{"measurement": "Morningglory plant response rating", "setting": "morningglory [1]; [6]", "value": 100}, {"measurement": "Morningglory plant response rating", "setting": "morningglory [1]; [7]", "value": 100}, {"measurement": "Plant response rating (scale of 0 to 100), Velvetleaf", "setting": "velvetleaf [2]; Preemergence, 250 g ai/ha", "value": 75}, {"measurement": "Velvetleaf plant response rating", "setting": "velvetleaf [2]; [8]", "value": 50}, {"measurement": "Velvetleaf plant response rating", "setting": "velvetleaf [2]; [9]", "value": 50}, {"measurement": "Velvetleaf plant response rating", "setting": "velvetleaf [2]; [10]", "value": 70}, {"measurement": "Plant response rating, Sedge, Umbrella", "setting": "sedge, umbrella", "value": 80}, {"measurement": "Plant response rating (scale of 0 to 100), Soybean", "setting": "soybean; Preemergence, 250 g ai/ha", "value": 20}, {"measurement": "Soybean plant response rating", "setting": "soybean; [8]", "value": 10}, {"measurement": "Soybean plant response rating", "setting": "soybean; [10]", "value": 15}, {"measurement": "Wheat plant response rating", "setting": "wheat; [6]", "value": 90}, {"measurement": "Wheat plant response rating", "setting": "wheat; [7]", "value": 80}, {"measurement": "Plant response rating (scale of 0 to 100 where 0 is no effect and 100 is complete control), Oat, Wild", "setting": "oat, wild; [11]", "value": 5}, {"measurement": "Oat, Wild plant response rating", "setting": "oat, wild; [12]", "value": 25}, {"measurement": "Plant response rating, Oat, Wild", "setting": "oat, wild; [13]", "value": 35}, {"measurement": "Plant response rating, Oat, Wild", "setting": "oat, wild; [14]", "value": 30}, {"measurement": "Plant response rating (scale of 0 to 100 where 0 is no effect and 100 is complete control), Chickweed", "setting": "chickweed; [11]", "value": 70}, {"measurement": "Chickweed plant response rating", "setting": "chickweed; [12]", "value": 70}, {"measurement": "Plant response rating, Chickweed", "setting": "chickweed; [13]", "value": 95}, {"measurement": "Plant response rating, Chickweed", "setting": "chickweed; [14]", "value": 90}, {"measurement": "Plant response rating (scale of 0 to 100 where 0 is no effect and 100 is complete control), Velvetleaf", "setting": "velvetleaf [3]; [11]", "value": 30}, {"measurement": "Velvetleaf plant response rating", "setting": "velvetleaf [3]; [12]", "value": 50}, {"measurement": "Plant response rating, Velvetleaf", "setting": "velvetleaf [3]; [13]", "value": 75}, {"measurement": "Plant response rating, Velvetleaf", "setting": "velvetleaf [3]; [14]", "value": 70}, {"measurement": "Plant response rating (scale of 0 to 100 where 0 is no effect and 100 is complete control), Johnsongrass", "setting": "johnsongrass; [11]", "value": 40}, {"measurement": "Plant response rating, Johnsongrass", "setting": "johnsongrass; 250 g ai/ha, scale 0 to 100 (0 no effect, 100 complete control)", "value": 90}, {"measurement": "Plant response rating, Johnsongrass", "setting": "johnsongrass; 125 g ai/ha, scale 0 to 100, 0 no effect, 100 complete control", "value": 75}, {"measurement": "Plant response rating (scale of 0 to 100), Barnyardgrass", "setting": "barnyardgrass; Preemergence, 250 g ai/ha", "value": 90}, {"measurement": "Barnyardgrass plant response rating", "setting": "barnyardgrass; preemergence, 31 g ai/ha, scale 0 to 100 (0 no effect, 100 complete control), 13 to 15 days", "value": 25}, {"measurement": "Barnyardgrass plant response rating", "setting": "barnyardgrass; [9]", "value": 30}, {"measurement": "Barnyardgrass plant response rating", "setting": "barnyardgrass; [10]", "value": 65}, {"measurement": "Velvetleaf plant response rating", "setting": "velvetleaf [4]; [6]", "value": 100}, {"measurement": "Velvetleaf plant response rating", "setting": "velvetleaf [4]; [7]", "value": 90}]}
{"smiles": "O=C(NCC(F)(F)F)c1cc(CCF)n(Cc2ccnc(C(F)(F)F)c2)n1", "note": "[Compound 175]", "values": [{"measurement": "Morningglory plant response rating", "setting": "morningglory [1]; [15]", "value": 90}, {"measurement": "Morningglory plant response rating", "setting": "morningglory [1]; [7]", "value": 80}, {"measurement": "Velvetleaf plant response rating", "setting": "velvetleaf [2]; [8]", "value": 55}, {"measurement": "Velvetleaf plant response rating", "setting": "velvetleaf [2]; [9]", "value": 98}, {"measurement": "Plant response rating, Velvetleaf", "setting": "velvetleaf [2]; [16]", "value": 100}, {"measurement": "Velvetleaf plant response rating", "setting": "velvetleaf [2]; [17]", "value": 100}, {"measurement": "Plant response rating, Sedge, Umbrella", "setting": "sedge, umbrella", "value": 85}, {"measurement": "Soybean plant response rating", "setting": "soybean; [8]", "value": 30}, {"measurement": "Soybean plant response rating", "setting": "soybean; [9]", "value": 98}, {"measurement": "Plant response rating, Soybean", "setting": "soybean; [16]", "value": 98}, {"measurement": "Soybean plant response rating", "setting": "soybean; [17]", "value": 98}, {"measurement": "Lambsquarters plant response rating", "setting": "lambsquarters; [18]", "value": 98}, {"measurement": "Lambsquarters plant response rating", "setting": "lambsquarters; [19]", "value": 100}, {"measurement": "Plant response rating, Lambsquarters", "setting": "lambsquarters; [20]", "value": 100}, {"measurement": "Lambsquarters plant response rating", "setting": "lambsquarters; [21]", "value": 100}, {"measurement": "Wheat plant response rating", "setting": "wheat; [15]", "value": 80}, {"measurement": "Wheat plant response rating", "setting": "wheat; [7]", "value": 40}, {"measurement": "Morningglory plant response rating", "setting": "morningglory [5]; [18]", "value": 95}, {"measurement": "Morningglory plant response rating", "setting": "morningglory [5]; [19]", "value": 100}, {"measurement": "Plant response rating, Morningglory", "setting": "morningglory [5]; [20]", "value": 100}, {"measurement": "Morningglory plant response rating", "setting": "morningglory [5]; [21]", "value": 100}, {"measurement": "Barnyardgrass plant response rating", "setting": "barnyardgrass; [8]", "value": 80}, {"measurement": "Barnyardgrass plant response rating", "setting": "barnyardgrass; [9]", "value": 80}, {"measurement": "Plant response rating, Barnyardgrass", "setting": "barnyardgrass; [16]", "value": 100}, {"measurement": "Barnyardgrass plant response rating", "setting": "barnyardgrass; [17]", "value": 100}, {"measurement": "Velvetleaf plant response rating", "setting": "velvetleaf [4]; [15]", "value": 80}, {"measurement": "Velvetleaf plant response rating", "setting": "velvetleaf [4]; [7]", "value": 60}]}
